# Columns and labels:
# [1] = biological target: T1, α4β1 integrin (Jurkat cell adhesion to immobilized CS-1 derived peptide CLHPGEILDVPST) (Homo sapiens, UniProt P05556+P13612); assay: Jurkat-CS-1 assay; assay type: cell-based; settings: Jurkat cells on CS-1 peptide coated plates; read-out: JK/CS-1 (Jurkat CS-1 Assay IC50 value range)
# T1 construct: 100 μl of Jurkat cells (2.5×10^6 cells/ml) in DMEM plus BSA; host or cells: Jurkat T-cell line
# Summary of the method: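 CS-1 peptide was SPDP-crosslinked onto HSA-coated plates and blocked with BSA. Jurkat cells (2.5×10^6 cells/ml) in DMEM/BSA were mixed with compound, generally at 100, 20, 5 and 1.25 μM, and allowed to adhere for 1 hr at 37° C. Bound cells were fixed, stained with toluidine blue and quantified by OD590.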
# [2] = biological target: T2, α4β1 integrin (Jurkat T-cell adhesion to IL-1 stimulated endothelial cell monolayers) (Homo sapiens, UniProt P05556+P13612); assay: Jurkat-endothelial cell adhesion assay (Jurkat EC); assay type: cell-based; settings: Jurkat cells on IL-1 stimulated human umbilical vein endothelial cells; read-out: JK/EC (Jurkat EC Assay IC50 value range)
# T2 construct: a T-cell line, Jurkat, known to express the α4β1 integrin; host or cells: Jurkat T-cell line
# T2 sequence (P13612 34-1032): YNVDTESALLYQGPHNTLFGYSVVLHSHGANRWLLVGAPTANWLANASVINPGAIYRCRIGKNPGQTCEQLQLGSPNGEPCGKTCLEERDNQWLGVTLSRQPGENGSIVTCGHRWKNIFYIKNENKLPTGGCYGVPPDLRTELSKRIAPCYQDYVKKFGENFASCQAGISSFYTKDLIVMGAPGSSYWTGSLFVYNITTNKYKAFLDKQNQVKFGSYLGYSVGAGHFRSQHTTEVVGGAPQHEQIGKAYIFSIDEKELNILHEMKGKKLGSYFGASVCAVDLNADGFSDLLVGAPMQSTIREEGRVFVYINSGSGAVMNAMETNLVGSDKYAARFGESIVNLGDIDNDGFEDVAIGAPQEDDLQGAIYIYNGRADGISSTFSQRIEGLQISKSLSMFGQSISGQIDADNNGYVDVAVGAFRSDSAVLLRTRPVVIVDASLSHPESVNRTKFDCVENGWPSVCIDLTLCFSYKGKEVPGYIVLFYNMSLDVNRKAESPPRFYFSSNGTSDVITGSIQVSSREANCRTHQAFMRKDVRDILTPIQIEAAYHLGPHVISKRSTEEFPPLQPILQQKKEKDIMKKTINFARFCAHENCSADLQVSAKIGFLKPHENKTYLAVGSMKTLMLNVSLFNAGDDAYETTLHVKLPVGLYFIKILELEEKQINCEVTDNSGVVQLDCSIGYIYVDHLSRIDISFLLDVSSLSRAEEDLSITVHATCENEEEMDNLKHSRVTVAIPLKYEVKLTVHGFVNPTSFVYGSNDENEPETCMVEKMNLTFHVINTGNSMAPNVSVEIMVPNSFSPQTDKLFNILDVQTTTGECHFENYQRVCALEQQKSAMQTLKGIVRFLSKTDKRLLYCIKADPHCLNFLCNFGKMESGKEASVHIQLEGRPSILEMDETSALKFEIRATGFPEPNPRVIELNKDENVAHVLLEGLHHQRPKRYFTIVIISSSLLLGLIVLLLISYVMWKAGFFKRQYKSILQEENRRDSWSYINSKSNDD
# T2 sequence (P05556 21-798): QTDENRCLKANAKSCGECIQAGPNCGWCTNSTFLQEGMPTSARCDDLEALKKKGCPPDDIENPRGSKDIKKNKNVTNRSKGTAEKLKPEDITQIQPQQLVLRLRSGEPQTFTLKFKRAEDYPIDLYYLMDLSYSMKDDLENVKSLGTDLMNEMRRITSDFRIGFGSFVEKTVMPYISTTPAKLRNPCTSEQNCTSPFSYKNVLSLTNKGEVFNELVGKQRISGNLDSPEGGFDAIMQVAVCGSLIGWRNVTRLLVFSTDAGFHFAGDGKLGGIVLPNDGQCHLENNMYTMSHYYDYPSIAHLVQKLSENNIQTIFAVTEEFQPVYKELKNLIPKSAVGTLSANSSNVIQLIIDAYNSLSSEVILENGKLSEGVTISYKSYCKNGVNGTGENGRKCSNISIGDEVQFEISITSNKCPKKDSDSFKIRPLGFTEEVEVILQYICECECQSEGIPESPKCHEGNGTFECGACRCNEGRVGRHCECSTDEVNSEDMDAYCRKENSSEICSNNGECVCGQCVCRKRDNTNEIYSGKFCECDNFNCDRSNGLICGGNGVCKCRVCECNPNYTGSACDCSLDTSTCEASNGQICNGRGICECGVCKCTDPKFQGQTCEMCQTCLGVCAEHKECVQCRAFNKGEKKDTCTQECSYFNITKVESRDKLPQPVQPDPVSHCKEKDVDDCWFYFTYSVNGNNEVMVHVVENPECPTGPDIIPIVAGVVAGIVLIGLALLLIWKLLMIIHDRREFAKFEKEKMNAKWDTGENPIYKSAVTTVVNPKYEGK
# Summary of the method: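 Adhesion was expressed as percent of compound-free fluorescence after 20 min at 37° C (following 5 min settling on ice) of BCECF-loaded Jurkat T cells on washed HUVEC monolayers. The endothelium, passage 6 or lower, had received 0.1 ng/ml recombinant IL-1 for 4 hr at 37° C; compound was premixed with the T cells, typically at 100, 20, 5 and 1.25 μM.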
# T1 sequence (P13612 34-1032): as the sequence (P13612 34-1032) above
# T1 sequence (P05556 21-798): as the sequence (P05556 21-798) above
IC50 [1] [nM],IC50 [2] [nM],Compound
50 to 750,250 to 1000,"CCOC(=O)N1CSC[C@@H]1C(=O)N[C@@H](Cc1ccc(OCc2c(Cl)cccc2Cl)cc1)C(=O)O (relative stereo) [Example 35, [S-(R*,R*)]-4-[[[1-Carboxy-2-[4-[(2,6-dichlorophenyl)methoxy]phenyl]ethyl]amino]carbonyl]-3-thiazolidinecarboxylic Acid 3-Ethyl Ester]"
≤ 50,≤ 250,O=C(O)[C@H](Cc1ccc(OCc2c(Cl)cccc2Cl)cc1)NC(=O)[C@H]1CSCN1C(=O)OCCN1CCOCC1 (relative stereo) [Example 37]
≥ 750,≥ 1000,"CC(C)(C)OC(=O)N1CSC[C@H]1C(=O)N[C@@H](Cc1ccc(OCc2c(Cl)cccc2Cl)cc1)C(=O)O (relative stereo) [Example 41, [R-(R*,S*)]-4-[[[1-Carboxy-2-[4-[(2,6-dichlorophenyl)methoxy]phenyl]ethyl]amino]carbonyl]-3-thiazolidinecarboxylic Acid 3-(1,1-Dimethylethyl)ester]"
50 to 750,≥ 1000,"COC(=O)CCCC(=O)N1CSC[C@@H]1C(=O)N[C@@H](Cc1ccc(NC(=O)c2c(Cl)cccc2Cl)cc1)C(=O)OC (relative stereo) [Example 59, [S-(R*,R*)]-4-[[[1-[4-[(2,6-dichlorobenzoyl)amino]phenyl]methyl]-2-methoxy-2-oxoethyl]amino]carbonyl]-δ-oxo-3-thiazolidinepentanoic Acid 3-Methyl Ester]"
≤ 50,≤ 250,"O=C(O)CCCC(=O)N1CSC[C@@H]1C(=O)N[C@@H](Cc1ccc(NC(=O)c2c(Cl)cccc2Cl)cc1)C(=O)O (relative stereo) [Example 60, [S-(R*,R*)]-4-[[[1-Carboxy-2-[4-[(2,6-dichlorobenzoyl)amino]phenyl]ethyl]amino]carbonyl]-δ-oxo-3-thiazolidinepentanoic Acid]"
≤ 50,≤ 250,"CC1(C)SCN(C(=O)CCC(=O)O)[C@H]1C(=O)N[C@@H](Cc1ccc(NC(=O)c2c(Cl)cccc2Cl)cc1)C(=O)O (relative stereo) [Example 63, [S-(R*,R*)]-4-[[[1-Carboxy-2-[4-[(2,6-dichlorobenzoyl)amino]phenyl]ethyl]amino]carbonyl]-5,5-dimethyl-δ-oxo-3-thiazolidinebutanoic Acid]"
≤ 50,≤ 250,"O=C(O)CCC(=O)N1CSC[C@@H]1C(=O)N[C@@H](Cc1ccc(OCc2c(Cl)cccc2Cl)cc1)C(=O)O (relative stereo) [Example 64, [S-(R*,R*)]-4-[[[1-Carboxy-2-[4-[(2,6-dichlorophenyl)methoxy]phenyl]ethyl]amino]carbonyl]-γ-oxo-3-thiazolidinebutanoic Acid]"
50 to 750,≥ 1000,"O=C(O)CCC(=O)N1CSC[C@H]1C(=O)N[C@@H](Cc1ccc(NC(=O)c2c(Cl)cccc2Cl)cc1)C(=O)O (relative stereo) [Example 67, [R-(R*,S*)]-4-[[[1-Carboxy-2-[4-[(2,6-dichlorobenzoyl)amino]phenyl]ethyl]amino]carbonyl]-γ-oxo-3-thiazolidinebutanoic Acid]"
50 to 750,≥ 1000,"O=C(O)CCCC(=O)N1CSC[C@H]1C(=O)N[C@@H](Cc1ccc(NC(=O)c2c(Cl)cccc2Cl)cc1)C(=O)O (relative stereo) [Example 68, [R-(R*,S*)]-4-[[[1-Carboxy-2-[4-[(2,6-dichlorobenzoyl)amino]phenyl]ethyl]amino]carbonyl]-δ-oxo-3-thiazolidinepentanoic Acid]"
≥ 750,≥ 1000,"COC(=O)[C@H](Cc1ccc(NC(=O)c2c(Cl)cccc2Cl)cc1)NC(=O)[C@@H]1CSC(C)(C)N1C(=O)OC(C)(C)C (relative stereo) [Example 72, [R-(R*,S*)]-4-[[[1-[[4-[(2,6-Dichlorobenzoyl)amino]phenyl]methyl]-2-methoxy-2-oxo-ethyl]amino]carbonyl]-2,2-dimethyl-3-thiazolidinecarboxylic Acid 3-(1,1-Dimethylethyl)ester]"
50 to 750,≥ 1000,"CC(C)(C)OC(=O)N1[C@H](C(=O)N[C@@H](Cc2ccc(NC(=O)c3c(Cl)cccc3Cl)cc2)C(=O)O)CSC1(C)C (relative stereo) [Example 73, [R-(R*,S*)]-4-[[[Carboxy-2-[4-[(2,6-dichlorobenzoyl)amino]phenyl]ethyl]amino]carbonyl]-2,2-dimethyl-3-thiazolidinecarboxylic Acid 3-(1,1-Dimethylethyl)ester]"
≥ 750,≥ 1000,"COC(=O)[C@H](Cc1ccc(NC(=O)c2c(Cl)cccc2Cl)cc1)NC(=O)[C@H]1CSC(C)(C)N1C(=O)OC(C)(C)C (relative stereo) [Example 75, [S-(R*,R*)]-4-[[[1-[[4-[(2,6-Dichlorobenzoyl)amino]phenyl]methyl]-2-methoxy-2-oxo-ethyl]amino]carbonyl]-2,2-dimethyl-3-thiazolidinecarboxylic Acid 3-(1,1-Dimethylethyl)ester]"
50 to 750,≤ 250,"CC(C)(C)OC(=O)N1[C@@H](C(=O)N[C@@H](Cc2ccc(NC(=O)c3c(Cl)cccc3Cl)cc2)C(=O)O)CSC1(C)C (relative stereo) [Example 76, [S-(R*,R*)]-4-[[[1-Carboxy-2-[4-[(2,6-dichlorobenzoyl)amino]phenyl]ethyl]amino]carbonyl]-2,2-dimethyl-3-thiazolidinecarboxylic Acid 3-(1,1-Dimethylethyl)ester]"
≥ 750,≥ 1000,"CCOC(=O)N1[C@@H](C(=O)N[C@@H](Cc2ccc(NC(=O)c3c(Cl)cccc3Cl)cc2)C(=O)OC)CSC12CCCC2 (relative stereo) [Example 77, [S-(R*,R*)]-3-[[[1-[[4-[(2,6-Dichlorobenzoyl)amino]phenyl]methyl]-2-methoxy-2-oxoethyl]amino]carbonyl]-1-thia-4-azaspiro[4.4]nonane-4-carboxylic Acid 4-Ethyl Ester]"
50 to 750,≥ 1000,"CCOC(=O)N1[C@@H](C(=O)N[C@@H](Cc2ccc(NC(=O)c3c(Cl)cccc3Cl)cc2)C(=O)O)CSC12CCCC2 (relative stereo) [Example 78, [S-(R*,R*)]-3-[[[1-Carboxy-2-[4-[(2,6-dichlorobenzoyl)amino]phenyl]ethyl]amino]carbonyl]-1-thia-4-azaspiro[4.4]nonane-4-carboxylic Acid 4-Ethyl Ester]"
≥ 750,≥ 1000,"CCOC(=O)N1[C@@H](C(=O)N[C@@H](Cc2ccc(NC(=O)c3c(Cl)cccc3Cl)cc2)C(=O)OC)CSC12CCCCC2 (relative stereo) [Example 79, [S-(R*,R*)]-3-[[[1-[[4-[(2,6-Dichlorobenzoyl)amino]phenyl]methyl]-2-methoxy-2-oxoethyl]amino]carbonyl]-1-thia-4-azaspiro[4.5]decanecarboxylic Acid 4-Ethyl Ester]"
≥ 750,≥ 1000,"CCOC(=O)N1[C@@H](C(=O)N[C@@H](Cc2ccc(NC(=O)c3c(Cl)cccc3Cl)cc2)C(=O)O)CSC12CCCCC2 (relative stereo) [Example 80, [S-(R*,R*)]-3-[[[1-Carboxy-2-[4-[(2,6-dichlorobenzoyl)amino]phenyl]ethyl]amino]carbonyl]-1-thia-4-azaspiro[4.5]decane-4-carboxylic Acid 4-Ethyl Ester]"
50 to 750,250 to 1000,"CCOC(=O)N1[C@@H](C(=O)N[C@@H](Cc2ccc(NC(=O)c3c(Cl)cccc3Cl)cc2)C(=O)O)C(C)(C)SC1(C)C (relative stereo) [Example 82, [S-(R*,R*)]-4-[[[1-Carboxy-2-[4-[(2,6-dichlorobenzoyl)amino]phenyl]ethyl]amino]carbonyl]-2,2,5,5-tetramethyl-3-thiazolidinecarboxylic Acid 3-Ethyl Ester]"
≤ 50,≤ 250,"CC1(C)SC[C@H](C(=O)N[C@@H](Cc2ccc(NC(=O)c3c(Cl)cccc3Cl)cc2)C(=O)O)N1C(=O)CCC(=O)O (relative stereo) [Example 85, [S-(R*,R*)]-4-[[[1-Carboxy-2-[4-[(2,6-dichlorobenzoyl)amino]phenyl]ethyl]amino]carbonyl]-2,2-dimethyl-γ-oxo-3-thiazolidinebutanoic Acid]"
≥ 750,≥ 1000,"COC(=O)CCC(=O)N1[C@@H](C(=O)N[C@@H](Cc2ccc(NC(=O)c3c(Cl)cccc3Cl)cc2)C(=O)OC)C(C)(C)SC1(C)C (relative stereo) [Example 86, [S-(R*,R*)]-4-[[[1-[[4-[(2,6-Dichlorobenzoyl)amino]phenyl]methyl]-2-methoxy-2-oxoethyl]amino]carbonyl]-2,2,5,5-tetramethyl-γ-oxo-3-thiazolidinebutanoic Acid Methyl Ester]"
50 to 750,≥ 1000,"CC1(C)SC(C)(C)N(C(=O)CCCC(=O)O)[C@@H]1C(=O)N[C@@H](Cc1ccc(NC(=O)c2c(Cl)cccc2Cl)cc1)C(=O)O (relative stereo) [Example 88, [R-(R*,S*)]-4-[[[1-Carboxy-2-[4-[(2,6-dichlorobenzoyl)amino]phenyl]ethyl]amino]carbonyl]-2,2,5,5-tetramethyl-δ-oxo-3-thiazolidinepentanoic Acid]"

# From patent US6685617B1, “Inhibitors of α4β1 mediated cell adhesion” (Pharmacia & Upjohn Company, priority 1998, dated 2004)
